Source: patent publication EP0871454B1, “PHOSPHOROUS-CONTAINING CYSTEINE AND SERINE PROTEASE INHIBITORS” (CEPHALON, INC., priority 1995, dated 1997)

Biological target: T1, Calpain I (Homo sapiens, UniProt P07384)
T1 construct: made in house
T1 sequence (P07384 1-714): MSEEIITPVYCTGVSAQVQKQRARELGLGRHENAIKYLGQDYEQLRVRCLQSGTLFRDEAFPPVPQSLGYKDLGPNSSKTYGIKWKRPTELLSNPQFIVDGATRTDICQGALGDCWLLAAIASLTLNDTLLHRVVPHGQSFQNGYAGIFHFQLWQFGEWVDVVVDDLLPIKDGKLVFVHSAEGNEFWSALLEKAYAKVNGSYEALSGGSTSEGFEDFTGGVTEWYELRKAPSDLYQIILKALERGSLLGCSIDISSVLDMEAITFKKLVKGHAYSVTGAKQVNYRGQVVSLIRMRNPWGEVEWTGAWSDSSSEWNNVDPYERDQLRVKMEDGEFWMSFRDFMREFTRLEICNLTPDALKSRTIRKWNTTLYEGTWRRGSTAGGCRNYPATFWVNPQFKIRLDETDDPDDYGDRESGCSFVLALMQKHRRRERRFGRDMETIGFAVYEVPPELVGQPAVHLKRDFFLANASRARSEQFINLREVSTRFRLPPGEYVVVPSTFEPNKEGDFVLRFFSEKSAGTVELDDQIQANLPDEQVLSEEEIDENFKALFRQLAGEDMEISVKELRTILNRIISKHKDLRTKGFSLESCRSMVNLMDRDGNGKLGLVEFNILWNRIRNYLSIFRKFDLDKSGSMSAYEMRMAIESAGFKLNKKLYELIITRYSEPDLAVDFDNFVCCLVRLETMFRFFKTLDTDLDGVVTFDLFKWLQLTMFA
T1 sequence (P04632 1-268 partner): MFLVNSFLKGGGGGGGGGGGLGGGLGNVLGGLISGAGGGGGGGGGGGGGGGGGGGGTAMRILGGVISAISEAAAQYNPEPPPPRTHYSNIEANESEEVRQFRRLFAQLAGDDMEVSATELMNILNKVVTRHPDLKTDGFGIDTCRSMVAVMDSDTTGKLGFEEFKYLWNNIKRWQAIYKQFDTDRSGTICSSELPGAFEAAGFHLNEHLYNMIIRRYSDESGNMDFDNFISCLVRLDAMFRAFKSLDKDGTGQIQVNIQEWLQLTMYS
Test: Inhibition and rate of inactivation of calpain I activity (Succ-Leu-Tyr-MNA substrate hydrolysis)
Format: biochemical
Conditions: for kobs/I: apparent second order rate constant of inactivation, pseudo-first order conditions, compounds tested at 0.1 µM, mean of three or more single cuvette analyses
Description: Inhibition and Rate of Inactivation of Cysteine Protease Activity
To evaluate inhibitory activity, stock solutions (40 times concentrated) of each compound to be tested were prepared in 100% anhydrous DMSO and 5 µl of each inhibitor preparation were aliquoted into each of three wells of a 96 well plate. Calpain I, prepared by a modification of the method of W. J. Lee et al. (Biochem. Internatl. 22: 163-171 (1990)), was diluted into assay buffer (i.e., 50mM Tris, 50mM NaCl, 1mM EDTA, 1mM EGTA, and 5mM β-mercaptoethanol, pH 7.5 including 0.2mM Succ-Leu-Tyr-MNA) and 175 µl aliquoted into the same wells containing the independent inhibitor stocks as well as to positive control wells containing 5 µl DMSO, but no compound. To start the reaction, 20 µl of 50 mM CaCl2 in assay buffer was added to all wells of the plate, excepting three, which were used as background signal baseline controls. Substrate hydrolysis was monitored every 5 minutes for a total of 30 minutes. Substrate hydrolysis in the absence of inhibitor was linear for up to 15 minutes.
Inhibition of calpain I activity was calculated as the percent decrease in the rate of substrate hydrolysis in the presence of inhibitor (vi) relative to the rate in its absence (vo). Comparison between vo and vi was made within the linear range for substrate hydrolysis. […] Apparent second order rate constants were determined from analysis of reaction progress curves under pseudo-first order conditions. Each determination represents the mean of three or more independent single cuvette analyses continually monitored via a Perkin-Elmer LS50B spectrofluorimeter.
Values for kobs/I are given in Table I for compounds tested at 0.1 µM. [drawing 8]

Structure (SMILES)	kobs/I [M⁻¹ s⁻¹]	% Inhib. @ 0.1 uM (0.1 uM compound, percent decrease in rate of substrate hydrolysis relative to no inhibitor) [%]
CC(C)C[C@H](NS(=O)(=O)N1CCOCC1)C(=O)N[C@@H](Cc1ccccc1)C(=O)COP(=O)(OCc1ccccc1)OCc1ccccc1 [Example 36, Dibenzyl (3S)-[3-[(N-morpholinylsulfonyl-L-leucyl)amino]-2-oxo-4-phenylbutyl] phosphate]	182000	–
CC(C)C[C@H](NC(=O)C12OC(CO)C(O)C1OC(C)(C)O2)C(=O)N[C@@H](Cc1ccccc1)C(=O)COP(=O)(OCc1ccccc1)OCc1ccccc1 (stereo partly drawn) [Example 38, Dibenzyl (3S)-[3-[(N-monoisopropylidine-2-keto-L-gulonyl-L-leucyl)amino]-2-oxo-4-phenylbutyl] phosphate)]	116000	–
CC(C)C[C@H](NC(=O)OCc1ccccc1)C(=O)N[C@@H](Cc1ccccc1)C(=O)COP1(=O)OCC(OCc2ccccc2)CO1 (some centres unmarked) [Example 47]	–	47
CC(C)CC(NC(=O)C12OC3COC(C)(C)OC3C1OC(C)(C)O2)C(=O)NC(Cc1ccccc1)C(=O)COP(=O)(OCc1ccccc1)OCc1ccccc1 [Example 37, Dibenzyl (3S)-[3-[(N-diisopropylidine-2-keto-L-gulonyl-L-leucyl)amino]-2-oxo-4-phenylbutyl] phosphate]	113000	–
CC(C)C[C@H](NC(=O)OC(C)(C)C)C(=O)N[C@@H](Cc1ccccc1)C(=O)COP(=O)(OCc1ccccc1)OCc1ccccc1 [Example 35, Dibenzyl (3S)-[3-[(N-t-Butoxycarbonyl-L-leucyl)amino]-2-oxo-4-phenylbutyl]phosphate]	242000	–
